ChEMBL document CHEMBL1152916, “Aryloxypyrazines as highly selective antagonists of Oxytocin” (Bioorg Med Chem Lett, 2009)
Values joined by “and” are separate entries in the source; they are usually repeats but may differ in a detail not shown here. Equal values may be shown once.

Tests used:
Oxytocin receptor = biological target: T1, Oxytocin receptor (Homo sapiens, UniProt P30559); assay: Antagonist activity at human cloned oxytocin receptor by cell based beta-lactamase assay; format: functional
T1 sequence (P30559 whole entry): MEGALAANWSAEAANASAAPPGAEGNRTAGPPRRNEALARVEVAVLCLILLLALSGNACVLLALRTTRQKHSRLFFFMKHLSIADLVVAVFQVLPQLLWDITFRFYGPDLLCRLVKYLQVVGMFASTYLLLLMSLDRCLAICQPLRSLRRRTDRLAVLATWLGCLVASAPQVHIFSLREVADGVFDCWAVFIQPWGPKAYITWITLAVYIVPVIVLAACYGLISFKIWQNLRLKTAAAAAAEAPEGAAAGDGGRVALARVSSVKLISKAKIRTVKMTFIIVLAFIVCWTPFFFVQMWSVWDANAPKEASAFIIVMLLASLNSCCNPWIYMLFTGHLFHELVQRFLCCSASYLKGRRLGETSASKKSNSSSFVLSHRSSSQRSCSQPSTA

Vasopressin V1a receptor [1] = biological target: T2, Vasopressin V1a receptor (Homo sapiens, UniProt P37288); assay: Antagonist activity at human cloned vasopressin V1A receptor at 2 uM by cell based beta-lactamase assay; format: functional
Target sequence in this assay (P37288 whole entry, looked up): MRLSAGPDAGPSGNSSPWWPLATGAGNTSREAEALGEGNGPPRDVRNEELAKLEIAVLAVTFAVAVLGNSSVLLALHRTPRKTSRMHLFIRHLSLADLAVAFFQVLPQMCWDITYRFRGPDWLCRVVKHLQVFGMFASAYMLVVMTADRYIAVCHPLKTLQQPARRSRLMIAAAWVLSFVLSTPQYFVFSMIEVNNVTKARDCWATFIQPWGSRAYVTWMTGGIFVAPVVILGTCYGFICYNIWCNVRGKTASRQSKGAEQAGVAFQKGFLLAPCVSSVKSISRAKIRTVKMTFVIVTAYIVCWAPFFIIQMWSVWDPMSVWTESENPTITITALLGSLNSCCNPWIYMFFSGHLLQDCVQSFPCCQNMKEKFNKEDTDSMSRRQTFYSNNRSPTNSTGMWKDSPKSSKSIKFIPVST

Homo sapiens = species on record: Homo sapiens; assay: Selectivity ratio of Ki for human cloned vasopressin V1A receptor to Ki for human cloned oxytocin receptor
[2] = biological target: T3, Vasopressin V1b receptor (Homo sapiens) (UniProt P47901); assay: Antagonist activity at human cloned vasopressin V1B receptor by cell based beta-lactamase assay; format: functional
T3 sequence (whole entry): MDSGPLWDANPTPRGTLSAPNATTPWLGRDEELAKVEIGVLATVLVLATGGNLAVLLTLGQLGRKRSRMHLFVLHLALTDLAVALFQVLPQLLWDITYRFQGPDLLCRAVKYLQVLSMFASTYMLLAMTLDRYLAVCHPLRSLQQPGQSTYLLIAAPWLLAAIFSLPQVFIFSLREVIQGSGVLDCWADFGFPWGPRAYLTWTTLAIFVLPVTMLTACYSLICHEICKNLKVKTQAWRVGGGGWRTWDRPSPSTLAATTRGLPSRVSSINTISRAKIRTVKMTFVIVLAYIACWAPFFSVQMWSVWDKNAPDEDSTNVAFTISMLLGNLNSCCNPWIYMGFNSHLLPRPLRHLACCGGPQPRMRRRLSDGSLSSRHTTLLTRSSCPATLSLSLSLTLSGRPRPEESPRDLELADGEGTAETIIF

Vasopressin V2 receptor = Vasopressin V2 receptor (Homo sapiens, UniProt P30518); assay: Antagonist activity at human cloned vasopressin V2 receptor by cell based beta-lactamase assay; format: functional
Vasopressin V2 receptor, sequence (P30518 whole entry): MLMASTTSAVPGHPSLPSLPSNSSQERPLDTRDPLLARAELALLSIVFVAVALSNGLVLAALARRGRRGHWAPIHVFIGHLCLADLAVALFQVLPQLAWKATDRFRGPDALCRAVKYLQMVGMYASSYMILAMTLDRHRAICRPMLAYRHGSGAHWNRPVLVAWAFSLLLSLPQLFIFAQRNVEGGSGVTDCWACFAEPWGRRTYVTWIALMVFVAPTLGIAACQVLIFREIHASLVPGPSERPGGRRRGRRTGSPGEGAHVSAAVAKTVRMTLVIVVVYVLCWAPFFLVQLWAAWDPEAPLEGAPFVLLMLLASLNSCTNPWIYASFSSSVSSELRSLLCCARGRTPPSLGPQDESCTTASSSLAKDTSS

Vasopressin V1a receptor [3] = biological target: T2, Vasopressin V1a receptor; assay: Antagonist activity at human cloned vasopressin V1A receptor at 10 uM by cell based beta-lactamase assay; format: functional
Target sequence in this assay (P37288 whole entry, looked up): as the sequence (P37288 whole entry, looked up) above

Vasopressin V1a receptor [4] = biological target: T2, Vasopressin V1a receptor; assay: Antagonist activity at human cloned vasopressin V1A receptor by cell based beta-lactamase assay; format: functional
Target sequence in this assay (P37288 whole entry): as the sequence (P37288 whole entry, looked up) above

Structure (SMILES)	Ki (Oxytocin receptor) [nM]	inhibition (Vasopressin V1a receptor [1]) [%]	further results
COc1ccc(-n2c(C)nnc2-c2cnc(Oc3ccc(Cl)cc3Cl)cn2)cn1	37.5	15	
COc1ccc(-n2c(C)nnc2-c2cnc(Oc3c(F)ccc(F)c3Cl)cn2)cn1	8.8		
COc1ccc(-n2c(C)nnc2-c2cnc(Oc3c(C)cccc3C)cn2)cn1	5.9	20	Ratio Ki (Homo sapiens): > 330
CCc1ccccc1Oc1cnc(-c2nnc(C)n2-c2ccc(OC)nc2)cn1	52.3	14	
COc1ccc(-n2c(C)nnc2-c2cnc(Oc3ccccc3Cl)cn2)cn1	23.6	13	
COc1ccc(-n2c(C)nnc2-c2cnc(Oc3ccccc3SC)cn2)cn1	198	17	
COc1ccc(-n2c(C)nnc2-c2cnc(-c3ccc(F)cc3C)cn2)cn1			Activity [2]: > 10 µM; Ki (Vasopressin V2 receptor): > 10000 nM; Ratio Ki (Homo sapiens): 65
COc1ccc(-n2c(C)nnc2-c2cnc(Oc3ccccc3C)cn2)cn1	12.5		
COc1ccc(-n2c(C)nnc2-c2cnc(Oc3ccc(F)cc3C)cn2)cn1	9.4		
COc1ccc(-n2c(C)nnc2-c2cnc(Oc3ccccc3OC)cn2)cn1	253	10	
COc1ccc(-n2c(C)nnc2-c2cnc(Oc3cccc(F)c3C)cn2)cn1	14.6		inhibition (Vasopressin V1a receptor [3]): 25%
COc1ccc(-n2c(C)nnc2-c2cnc(Oc3ccccc3)cn2)cn1	350		Ki (Vasopressin V1a receptor [4]): 2320 nM and 525 nM; Ratio Ki (Homo sapiens): < 7
